Laboratory results published in ChEMBL document CHEMBL5247641, “Discovery of Potent DYRK2 Inhibitors with High Selectivity, Great Solubility, and Excellent Safety Properties for the Treatment of Prostate Cancer” (J Med Chem, 2023).
Active and inactive are the calls of the source. No cut-off for these calls is given here.

Assays:
[1] = Thermodynamic water solubility of compound by HPLC anlaysis; format: physicochemical; conditions: read-out: Therm_solubility
DU-145 [2] = assay: Induction of apoptosis in human DU-145 cells assessed as apoptotis rate at 2 uM incubated for 24 hrs by Annexin V-FITC and PI staining based flow cytometry (Rvb= 4.36%); format: functional
CWR22R [3] = assay: Induction of cell cycle arrest in human 22Rv1 cells assessed as accumulation of cells at S phase at 1 uM incubated for 24 hrs by propidium iodide based flow cytometric analysis (Rvb=20.51 %); format: functional
[4] = target: T1, Dual specificity tyrosine-phosphorylation-regulated kinase 2 (Homo sapiens) (UniProt Q92630); assay: Inhibition of DYRK2 in human DU-145 cells assessed as reduction in 4E-BP1 phosphorylation at 2 to 8 uM incubated for 24 hrs by Western blot analysis; format: cell-based; conditions: dose 2-8 µM
T1 sequence (whole entry): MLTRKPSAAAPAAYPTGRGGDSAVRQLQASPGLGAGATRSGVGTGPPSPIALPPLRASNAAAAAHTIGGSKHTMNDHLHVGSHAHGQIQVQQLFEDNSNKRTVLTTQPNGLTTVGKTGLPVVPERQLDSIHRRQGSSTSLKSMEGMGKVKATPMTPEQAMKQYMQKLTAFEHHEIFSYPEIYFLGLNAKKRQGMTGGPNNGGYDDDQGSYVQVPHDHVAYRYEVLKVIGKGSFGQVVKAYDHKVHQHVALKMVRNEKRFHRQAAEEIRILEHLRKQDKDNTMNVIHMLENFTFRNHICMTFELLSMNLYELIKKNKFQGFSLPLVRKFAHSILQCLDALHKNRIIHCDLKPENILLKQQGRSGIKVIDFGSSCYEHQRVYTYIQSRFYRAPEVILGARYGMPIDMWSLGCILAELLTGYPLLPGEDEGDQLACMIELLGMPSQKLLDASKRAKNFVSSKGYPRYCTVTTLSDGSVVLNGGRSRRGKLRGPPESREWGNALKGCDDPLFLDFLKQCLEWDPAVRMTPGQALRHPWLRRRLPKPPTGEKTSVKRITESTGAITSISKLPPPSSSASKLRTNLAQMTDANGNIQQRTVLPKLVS

CWR22R [5] = assay: Induction of apoptosis in human 22Rv1 cells assessed as increase in cleaved PARP level at 2 to 8 uM incubated for 24 hrs by Western blot analysis; format: functional, cell-based; conditions: dose 2-8 µM
[6] = Acute toxicity in ICR mouse assessed as change in kidney weight at 1000 to 10000 mg/kg,po and measured after 14 days; format: organism-based; conditions: in vivo, 336 h, dose 1000-10000 mg/kg, time 14 day
DU-145 [7] = assay: Antimigratory activity against human DU-145 cells assessed as upregulation of E-cadherin expression level at 2 to 8 uM incubated for 24 hrs by Western blot analysis; format: functional, cell-based; conditions: dose 2-8 µM
DU-145 [8] = assay: Antiproliferative activity against human DU-145 cells assessed as inhibition of clone formation at 1 to 8 uM incubated for 2 weeks by crystal violet staining based assay; format: functional, cell-based; conditions: dose 1-8 µM
CWR22R [9] = assay: Induction of apoptosis in human 22Rv1 cells assessed as apoptotis rate at 4 uM incubated for 24 hrs by Annexin V-FITC and PI staining based flow cytometry (Rvb= 3.08%); format: functional

Cl.O=C(c1ccc(Nc2ncc(F)c(-c3ccc4scnc4c3)n2)nc1)N1CCNCC1
solubility thermodynamic [1]: 29.5 mg/mL | Activity (DU-145 [2]): 6.73% | Activity (CWR22R [3]): 16.48% | inhibition [4]: Active | Activity (CWR22R [5]): Active | Activity [6]: Non-Toxic | Activity (DU-145 [7]): Active | Activity (DU-145 [8]): Active | Activity (CWR22R [9]): 21.78%
